Tests used:
[1] = Jet nebulization (Pari LC Jet) with laser diffraction aerosol characterization; type: physicochemical; conditions: Pari LC Jet nebulizer, n=3
Procedure: Colimycin was freshly dissolved in 37.5 mM NaCl at a concentration of 20 mg/ml colistin base equivalent immediately prior to nebulization. Colistin component IV sulfate was dissolved in 120 mM sodium chloride, and the pH was adjusted to 7.0 with 1 molar sodium hydroxide.
Four ml of solution to be nebulized was placed in a Pari LC Jet nebulizer fitted with a Pulmonaide Compressor (DeVilbiss Model 5650D) with an air flow rate of 4-6 liters/minute. Aerosols generated are characterized by passing through a laser diffraction particle analyzer (Malvern Mastersizer X). Each formulation was analyzed multiple times to determine reproducibility of results, which were expressed as total obscuration time, mass median average diameter, and respirable fraction.
In order to characterize colistin aerosols, and to investigate differences between the colimycin and colistin aerosol formulations, comparisons of the aerosolization of 150 mM (isotonic) NaCl alone, 20 mg/ml colistin component IV sulfate in 120 mM or 20 mg/ml colimycin in […] NaCl were made. Results are shown in FIG. 18, which is a comparison of the times required for aerosolization of 4 mL of the three solutions. The two drug solutions were analyzed three times, and saline was analyzed four times. Bars show standard deviations of measurements.
Colimycin was freshly dissolved in 37.5 mM […] NaCl at a concentration of 20 mg (colistin base equivalents)/ml solution immediately prior to nebulization. […]
Four ml of solution to be nebulized was placed in a Pari LC Jet nebulizer fitted with a Pulmonaide Compressor, DeVilbiss Model 5650D, with an air flow rate of 4-6 liters/minute. […] Each formulation was analyzed multiple times to determine reproducibility of results, which were expressed as total obscuration time, mass median particle diameter, and respirable fraction.
Mass median particle diameters were expressed as average ±standard deviation (n) for aerosols.
Average respirable fractions were calculated as average percentage of particles ranging from 1 micron to 6 microns in diameter within the aerosol over time.

[2] = 2,000,000 units nebulized; cited from earlier work
Pseudomonas aeruginosa [3] = test: Time kill kinetic study of bactericidal activity; type: cell-based
Procedure: Comparison of anti-Pseudomonas aeruginosa activities of colimycin and colistin hydrochloride was performed using time kill kinetic studies as described in Antimicrobial Susceptibility Testing, Section 5.16.: Tests to assess bactericidal activity, Clinical Microbiology Procedure Handbook, Ed. Henry D. Isenberg, ASM, Washington, DC (1992). The exact procedure is described in Example 14.
Briefly, tests were similar to those used for determining MICs, except that the final test volume was larger (10 mL) to allow sampling at various time points. Parenteral colimycin was freshly diluted immediately before testing. Cultures were incubated at 37° C. At initial set-up and at various time-points, cultures were plated, with or without further dilution, onto sheep blood agar plates. Plates were incubated for 18-24 hours, and the number of CFU/mL was determined and plotted to determine the percentage of surviving organisms and the time required to achieve 99.9% killing. Results are seen in FIG. 15.
In this study, Pseudomonas aeruginosa organisms were exposed to varying concentrations of colistin or colimycin as indicated in FIG. 15. Concentrations of colimycin were between 8-64 μg/ml. Concentrations of colistin component IV hydrochloride were 0.25 and 0.5 μg/ml, that is 32-256 (for 0.25 μg/ml) and 16-128 (for 0.5 μg/ml) times lower that concentrations of colimycin. Colony-forming unit (CFU) per ml were determined and plotted against drug exposure time in hours.
Time kill kinetic studies were performed as described in (Antimicrobial Susceptibility Testing, Section 5.16. Tests to assess bactericidal activity, in Clinical Microbiology Procedure Handbook (supra).
Tests were set in the same way used for determining MICs (Example 13), except that the final test volume was larger (10 mL) to allow sampling at various time points. Cultures were incubated at 37° C. At initial set-up and at various desired time-points, cultures were sampled and plated (with or without further dilution) onto sheep blood agar plates. Plates were incubated for 18-24 hours, and the number of CFU/mL was determined and plotted to determine the percentage of surviving organisms and the time required to achieve 99.9% killing.

[4] = pH of freshly dissolved colimycin solutions over time; type: physicochemical; conditions: 10.0, 15.0 and 20.0 mg/ml in water, all cases
Procedure: Acidic stability of the colimycin solution was determined according to Example 11. Briefly, colimycin (405 mg) was freshly dissolved in water to achieve 10.0 mg/ml, 15.0 mg/ml, and 20.0 mg/ml solutions. These values correspond to concentrations of 3.7 mg/ml, 5.6 mg/ml and 7.4 mg/ml colistin base equivalent. Solution pH was monitored continuously at various times from 1 minute to 180 minutes and pH values and times were recorded.
The pH of freshly dissolved colimycin was determined by weighing a freshly opened vial of Coly-Mycin M Parenteral, Parke-Davis, lot# 01966P, containing 405 mg into 20 ml glass screwcap scintillation vials and adding an appropriate volume of sterile irrigation water to achieve 10.0 mg/ml, 15.0 mg/ml, and 20.0 mg/ml solutions. These values correspond to concentrations of 3.7 mg/ml, 5.6 mg/ml and 7.4 mg/ml colistin base equivalent. Solution pH was then monitored continuously using a Beckman Phi-10 pH meter fitted with a Beckman Futura Plus combination electrode calibrated at pH 4.0 and 7.0 as per manufacturer's instructions prior to use. At various times from 1 minute to 180 minutes, pH values and times were recorded.

[5] = systemic intravenous, acute pulmonary exacerbation; cited from earlier work
[6] = in situ in the recipient patient body; cited from earlier work
Pseudomonas aeruginosa [7] = conditions: cited from earlier work
[8] = 20 mg/ml, average±standard deviation

Compound | average respirable fraction (particles from 1 micron to 6 microns) [1, 8] | mass median particle diameter of the aerosol [1, 8] | aerosolization time ([1]; 4 mL of 20 mg/ml solution, mean) | patients reporting chest tightness (bronchoconstriction response) [2] | eradication of Pseudomonas aeruginosa organism (Pseudomonas aeruginosa [3]; 8 μg/mL, 4 hours of testing) | killing of test organism (Pseudomonas aeruginosa [3]; 16 μg/mL, at 3 hours) | time at which over 5 logs killing was shown (Pseudomonas aeruginosa [3]; 64 μg/mL) | concentration required for similar level of killing (over 5 logs within 2 hours) (Pseudomonas aeruginosa [3]; freshly dissolved) | pH of solution within 3 minutes [4] | cases with nephrotoxicity symptoms [5] | cases with neurotoxicity symptoms [5] | drug converted to colistin in an hour [6] | strains of Pseudomonas aeruginosa sensitive to treatment (Pseudomonas aeruginosa [7])
colimycin | 58.77±2.03 percentage | 4.11±0.29 microns | 10.53 min | approximately 65% | did not, even at 4 hours of testing, eradicate | over 5 logs | 1.5 hours | 32 μg/ml | > 7.5 | about 5% | about 29% | ~3% | 
NC[C@H]1O[C@H](O[C@H]2[C@H](O)[C@@H](O[C@H]3O[C@H](CO)[C@@H](O)[C@H](N)[C@H]3O)[C@H](N)C[C@@H]2N)[C@H](N)C[C@@H]1O [tobramycin] |  |  |  |  |  |  |  |  |  |  |  |  | about 90%

From patent US5767068A, “Pure biologically active colistin, its components and a colistin formulation for treatment of pulmonary infections” (Pathogenesis Corporation, priority 1997, dated 1998)
